# From BindingDB's records for doi:10.7270/Q2H993J6 (Pcmd, 2008)
# Where a SMILES comes first, the peptide text is derived from it. The star is where a group is joined. Cbz = O=C(OCc1ccccc1)*
# Target: Coagulation factor XI (Homo sapiens, UniProt P03951)
# Assay: FXIa inhibitor IC50 values, dose response, biochemical, hits from 1536-well screen (AID 846)
# Conditions: pH 7.4; 23 °C
# Sequence of Coagulation factor XI (P03951 19-387 limits assumed): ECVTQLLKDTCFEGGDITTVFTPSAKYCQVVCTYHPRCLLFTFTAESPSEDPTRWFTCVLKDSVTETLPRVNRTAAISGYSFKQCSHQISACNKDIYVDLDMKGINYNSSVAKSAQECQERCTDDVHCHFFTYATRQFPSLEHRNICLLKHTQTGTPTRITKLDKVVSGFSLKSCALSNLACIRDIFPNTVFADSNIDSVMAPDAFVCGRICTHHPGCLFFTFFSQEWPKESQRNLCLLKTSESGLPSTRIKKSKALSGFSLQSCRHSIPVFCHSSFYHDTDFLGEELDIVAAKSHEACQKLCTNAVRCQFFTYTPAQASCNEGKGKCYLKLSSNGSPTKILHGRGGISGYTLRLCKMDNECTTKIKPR
# Sequence of Coagulation factor XI (P03951 388-625 limits assumed): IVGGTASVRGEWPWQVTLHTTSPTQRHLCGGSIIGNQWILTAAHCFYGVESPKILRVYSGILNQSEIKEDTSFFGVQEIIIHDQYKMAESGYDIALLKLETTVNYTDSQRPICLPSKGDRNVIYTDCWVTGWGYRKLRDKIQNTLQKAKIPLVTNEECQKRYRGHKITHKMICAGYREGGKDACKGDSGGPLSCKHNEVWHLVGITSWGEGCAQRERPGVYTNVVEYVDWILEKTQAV
compound,measurement,value
O=C(Oc1ccc(=O)n(-c2ccccc2)n1)c1ccc(Cl)cc1 [4-chlorobenzoic acid (6-oxo-1-phenyl-3-pyridazinyl) ester],IC50,5.6 µM
COc1ccc([N+](=O)[O-])cc1NCc1ccco1 [N-(2-furanylmethyl)-2-methoxy-5-nitroaniline],IC50,> 50 µM
"N#CCCC1CCCC=C1N(Cc1ccccc1)C(=O)C(Cl)Cl (configuration not stated) [2,2-bis(chloranyl)-N-[6-(2-cyanoethyl)cyclohexen-1-yl]-N-(phenylmethyl)ethanamide]",IC50,> 50 µM
O=C(Oc1cncc(Cl)c1)c1ccco1,IC50,0.741 µM
O=C(Nc1nc(-c2cccs2)cs1)c1ccc(Cl)cc1 [4-chloro-N-(4-thiophen-2-yl-2-thiazolyl)benzamide],IC50,17.3 µM
CC(C)CNC(=O)Nc1ccc(F)c(Cl)c1 [MLS000679438],IC50,> 50 µM
CCOC(=O)c1ccc(NC(=O)Nc2cccc(C)n2)cc1 [MLS000679527],IC50,> 50 µM
CCc1ccc[n+](-c2[n-]c(=O)sc2C=NNC(N)=O)c1,IC50,> 50 µM
COc1ccc(C=NNC(=O)CCn2cnc3ccccc32)cc1 [MLS000769034],IC50,> 50 µM
O=C(NCc1ccc2c3c(cccc13)C(=O)N2)c1cccs1 [N-[(2-oxo-1H-benzo[cd]indol-6-yl)methyl]thiophene-2-carboxamide],IC50,> 50 µM
O=C(Oc1ccc2ccc(=O)oc2c1)c1cccs1 [2-thiophenecarboxylic acid (2-oxo-1-benzopyran-7-yl) ester],IC50,2.68 µM
CCOC(=O)C(=O)N(Nc1ccc(C)cc1)c1ccc(C)cc1,IC50,> 50 µM
Cc1nc2ccccc2c(=O)n1NC(=O)c1cc(Br)ccc1Cl,IC50,> 50 µM
O=C(O)c1ccc(N=C(NS(=O)(=O)c2ccc(Cl)cc2)c2ccccc2)cc1 [4-({[(E)-4-Chloro-benzenesulfonylimino]-phenyl-methyl}-amino)-benzoic acid],IC50,> 50 µM
O=C(NCc1ccccc1)c1ccc(Cl)nc1,IC50,> 50 µM
Cn1cccc1C(=O)Nc1nc(-c2ccccn2)cs1 [SMR000064459],IC50,21.6 µM
O=C(NC1CCCC1)C(c1ccccn1)N(C(=O)c1csnn1)C1CC1 (configuration not stated) [N-[2-(cyclopentylamino)-2-oxo-1-(2-pyridinyl)ethyl]-N-cyclopropyl-4-thiadiazolecarboxamide],IC50,> 50 µM
Cc1ccc(CN2C(=O)C(=NNC(=S)Nc3ccccc3F)c3cc(S(=O)(=O)N4CCOCC4)ccc32)cc1 [SMR000314855],IC50,> 50 µM
CC(C)(C)C(=O)CSc1ncnc2c1cnn2-c1ccccc1,IC50,> 50 µM
COc1ccc(C)cc1NC(=O)COC(=O)C1CCN(C(=O)c2ccc(Cl)cc2)CC1 [[2-[(2-methoxy-5-methyl-phenyl)amino]-2-oxidanylidene-ethyl] 1-(4-chlorophenyl)carbonylpiperidine-4-carboxylate],IC50,> 50 µM
"COC(=O)c1cccc(NC(=O)CSc2nnc[nH]2)c1 [methyl 3-{[(4H-1,2,4-triazol-3-ylthio)acetyl]amino}benzoate]",IC50,> 50 µM
COCCNCC(=O)Nc1nc(C)cs1 [SMR000287473],IC50,> 50 µM
"Oc1cc(N2CCC(c3nc4ccccc4o3)CC2)c(O)n1-c1ccc(Cl)c(C(F)(F)F)c1 [3-[4-(1,3-benzoxazol-2-yl)piperidin-1-yl]-1-[4-chloranyl-3-(trifluoromethyl)phenyl]pyrrolidine-2,5-dione]",IC50,> 50 µM
COc1c(C)cc(C(=O)C2CCCN(S(=O)(=O)c3c(C)noc3C)C2)cc1C (configuration not stated) [MLS000693702],IC50,> 50 µM
"Cc1cc(C)c(C)c(S(=O)(=O)ON2C(=O)c3ccccc3C2=O)c1C [2-{[(2,3,5,6-tetramethylphenyl)sulfonyl]oxy}-1H-isoindole-1,3(2H)-dione]",IC50,3.2 µM
O=C(NN=C1CCCC1)c1ccccc1OCc1ccc(Cl)cc1,IC50,> 50 µM
O=S(=O)([N-]c1nc2ccccc2nc1-[n+]1ccn(Cc2ccccc2)c1)c1ccc(Cl)cc1 [(4-chlorophenyl)sulfonyl-[3-[3-(phenylmethyl)imidazol-3-ium-1-yl]quinoxalin-2-yl]azanide],IC50,> 50 µM
Fc1ccc(Nc2ccc3ccccc3n2)c(F)c1 [MLS001004714],IC50,> 50 µM
"CCOC(=O)c1c(C)n(C)c2ccc(OC)c(NC(=O)CCN3CCC(Cc4ccccc4)CC3)c12 [ethyl 5-methoxy-1,2-dimethyl-4-[3-[4-(phenylmethyl)piperidin-1-yl]propanoylamino]indole-3-carboxylate]",IC50,> 50 µM
"CCc1cc2c(SCC(=O)N(C)C3CCS(=O)(=O)C3)ncnc2s1 (configuration not stated) [N-(1,1-dioxothiolan-3-yl)-2-(6-ethylthieno[2,3-d]pyrimidin-4-yl)sulfanyl-N-methylacetamide]",IC50,> 50 µM
"COc1cc(C(=O)NC(=S)N(C)Cc2ccccc2)cc(OC)c1OC [N-[benzyl(methyl)carbamothioyl]-3,4,5-trimethoxybenzamide]",IC50,> 50 µM
COc1ccc(C(=O)Nc2ccc(N3CCN(c4ccc(OC)cc4)CC3)c(C#N)c2)cc1 [N-[3-cyano-4-[4-(4-methoxyphenyl)piperazin-1-yl]phenyl]-4-methoxy-benzamide],IC50,> 50 µM
"Cc1cc(NS(=O)(=O)c2ccc(N3C(=O)C4C5C=CC(C5)C4C3=O)cc2)nc(C)n1 (configuration not stated) [N-(2,6-dimethyl-4-pyrimidinyl)-4-(3,5-dioxo-4-azatricyclo[5.2.1.0~2,6~]dec-8-en-4-yl)benzenesulfonamide]",IC50,> 50 µM
"Cc1ccc(NC2=NC3(CCCCC3)N=C(N)N2)c(C)c1 [N4-(2,4-dimethylphenyl)-1,3,5-triazaspiro[5.5]undeca-1,4-diene-2,4-diamine]",IC50,> 50 µM
CCc1ccccc1-n1c(O)cc(=O)[nH]c1=O,IC50,> 50 µM
O=C(Oc1ccc2c(=O)c(Cl)coc2c1)c1ccncc1 [SMR000014947],IC50,6.2 µM
"Cc1n[nH]c(C)c1CCC(=O)NN=Cc1c[nH]c2ccccc12 [3-(3,5-Dimethyl-1H-pyrazol-4-yl)-propionic acid [1-(1H-indol-3-yl)-meth-(E)-ylidene]-hydrazide]",IC50,> 50 µM
CCc1cccc(NC(=O)Cc2ccc([N+](=O)[O-])cc2)c1,IC50,> 50 µM
Cc1cccc(OCC(=O)NN=Cc2ccccc2C(=O)O)c1 [SMR000372421],IC50,> 50 µM
"CC(C)c1csc(CN2CCCC(CCC(=O)NCc3ccccc3F)C2)n1 (configuration not stated) [N-[(2-fluorophenyl)methyl]-3-[1-[(4-propan-2-yl-1,3-thiazol-2-yl)methyl]piperidin-3-yl]propanamide]",IC50,> 50 µM
NC[C@H](O)c1ccc(O)cc1 [SMR000058358],IC50,> 50 µM
"O=C(c1cccn2c(=O)c3cc(Br)ccc3nc12)N1CCC2(CC1)OCCO2 [2-bromanyl-6-(1,4-dioxa-8-azaspiro[4.5]decan-8-ylcarbonyl)pyrido[2,1-b]quinazolin-11-one]",IC50,> 50 µM
"CCN1CCN(CC(=O)Nc2cc(C)on2)CC1 [2-(4-ethylpiperazin-1-yl)-N-(5-methyl-1,2-oxazol-3-yl)acetamide;oxalic acid]",IC50,> 50 µM
CCOC(=O)CSc1nnc(-c2ccccc2)o1 [MLS000526656],IC50,> 50 µM
"CCOC(=O)Cc1csc(NC(=O)CC(C)(C)CC(=O)O)n1 [5-[[4-(2-ethoxy-2-oxidanylidene-ethyl)-1,3-thiazol-2-yl]amino]-3,3-dimethyl-5-oxidanylidene-pentanoic acid]",IC50,> 50 µM
CC(C)(C)C(=O)Nc1ccc(C(=O)NN=Cc2ccccc2OC(=O)c2ccccc2)cc1 [SMR000174811],IC50,> 50 µM
Cc1ccc(C(=O)NNC(=S)NC(=O)COc2ccccc2)cc1 [N-[[(4-methylbenzoyl)amino]carbamothioyl]-2-phenoxyacetamide],IC50,3 µM
CCOC(=O)c1sc2ncn(N=Cc3ccc(O)cc3)c(=O)c2c1C [SMR000371630],IC50,> 50 µM
COc1ccccc1CC(=O)NCc1csc(-c2cccs2)n1 [MLS000859819],IC50,> 50 µM
N#Cc1ccsc1NC(=O)CN(Cc1ccccc1)Cc1ccccc1 [2-[bis(phenylmethyl)amino]-N-(3-cyano-2-thiophenyl)acetamide],IC50,> 50 µM
CCOc1cccc2c1OC1(C)CC2NC(=O)N1Cc1ccccc1 (configuration not stated) [MLS000730538],IC50,> 50 µM
Cc1nn(C)c(C)c1C=C(C(=O)C(C)C)n1cncn1 [SMR000427822],IC50,> 50 µM
CSc1nc2cc3c(cc2n1C(=O)c1ccc(C)cc1)OCCO3 [MLS000544330],IC50,2.22 µM
CC(C)C(NC(=O)C(Cc1ccccc1)NC(=O)OCc1ccccc1)C(=O)O (stereo not drawn) [3-methyl-2-[[1-oxo-3-phenyl-2-(phenylmethoxycarbonylamino)propyl]amino]butanoic acid] (Cbz-Phe-Val-OH; configuration not given here),IC50,> 50 µM
"C=CCOC(=O)C1C(C)=Nc2[nH]c(=O)[nH]c(=O)c2C1c1ccccc1 (configuration not stated) [7-methyl-2,4-dioxo-5-phenyl-5,8-dihydro-1H-pyrido[2,3-d]pyrimidine-6-carboxylic acid prop-2-enyl ester]",IC50,> 50 µM
CN1CCN(S(=O)(=O)Cc2ccc(Cl)cc2)CC1 [SMR000456888],IC50,> 50 µM
O=[N+]([O-])c1ccc(OCCO)c(P(=O)(c2ccccc2)c2ccccc2)c1 [SMR000420001],IC50,> 50 µM
O=C(NN=Cc1ccccc1C(=O)O)c1ccccc1Br [MLS000774668],IC50,> 50 µM
"Cc1ccc(C(=O)n2nc(-c3cccnc3)nc2N)cc1 [1-(4-methylbenzoyl)-3-(3-pyridinyl)-1H-1,2,4-triazol-5-amine]",IC50,> 50 µM
"Oc1ccc(C=NN2CCN(C3c4ccccc4-c4ccccc43)CC2)c(O)c1 [4-({[4-(9H-fluoren-9-yl)-1-piperazinyl]imino}methyl)-1,3-benzenediol]",IC50,> 50 µM
CCOC(=O)Cc1csc(NC(=O)c2sc3nc4ccc(CC)cc4cc3c2N)n1 [MLS000556627],IC50,> 50 µM
NS(=O)(=O)c1ccc(Cl)cc1[N+](=O)[O-],IC50,> 50 µM
O=C(c1cc(Cl)nc2ccccc12)N1CCc2ccccc2C1 [SMR000347901],IC50,> 50 µM
"CCn1c(C)nc2cc(C(=O)NN=C(C)c3ccc(OC)cc3O)ccc21 [1-ethyl-N'-[(1E)-1-(4-methoxy-6-oxidanylidene-cyclohexa-2,4-dien-1-ylidene)ethyl]-2-methyl-benzimidazole-5-carbohydrazide]",IC50,> 50 µM
Cc1ccc(C(=O)C(=O)c2ccc(C)c(N)c2)cc1N,IC50,> 50 µM
COc1ccc(-c2n[nH]cc2C2N=C(N)Nc3nc4ccccc4n32)cc1 (configuration not stated),IC50,> 50 µM
CCCCCC(=O)Nc1cccc([C+]2CC3(CC(C(N)=O)N(C(=O)c4cc([N+](=O)[O-])cc([N+](=O)[O-])c4C)C3)O[N-]2)c1 (configuration not stated) [MLS000561980],IC50,34.4 µM
